These results are taken from paper PMC11313944, “Ethyl Acetate Fraction from Eleutherococcus divaricatus Root Extract as a Promising Source of Compounds with Anti-Hyaluronidase, Anti-Tyrosinase, and Antioxidant Activity but Not Anti-Melanoma Activity” (Molecules, 2024).

Marks after values point to notes of the source that are not given here.

Data set [1] has as its system mushroom tyrosinase (mTYR). Nature of the data set: Tyrosinase inhibition assay (L-tyrosine substrate). The note with it: phenolic acid and eleutheroside standards (Table 6). The data set is classed as biochemical. The protocol: Tyrosinase inhibitor assays were conducted in 96-well plates using a modified method originally described by Wróbel-Biedrawa. The process involves the conversion of […] to L-DOPA, then to DOPA-quinone, facilitated by the tyrosinase enzyme. This reaction results in the solution turning brown. In brief, 10 μL of the sample (concentrations of 10.0, 1.0, and 0.1 mg/mL in 10% DMSO) was combined with 150 μL of a phosphoric buffer containing mushroom tyrosinase (pH = 6.88, 100 U/mL). This mixture was then incubated for 10 min at room temperature. […] Following incubation, L-tyrosine (0.3 mg/mL) was added to each well, and the absorbance was measured at 492 nm (using a kinetic model every 5 min). Two time points (t1 and t2) were selected within the linear range of the graph. All samples were tested in triplicate. […] INHTYR=AC−AS/AC∗100%
AS—the difference in absorbance between times t2 and t1 for the sample;
AC—the difference in absorbance between times t2 and t1 for the positive control.

Data set [2] deals with hyaluronidase from bovine testes (bHYAL) (Bos taurus, UniProt Q2YDK3). Nature of the data set: Bovine hyaluronidase inhibition assay (CTAB turbidimetric). In kind it is biochemical. The note with it: phenolic acid and eleutheroside standards (Table 6). How it is done:
Bovine hyaluronidase inhibitor assays were conducted in 96-well plates, following a modified method originally described by Di Ferrante and Studzińska-Sroka. The activity of the compounds or extracts was determined based on the precipitation of non-hydrolyzed hyaluronic acid using cetyltrimethylammonium bromide (CTAB). A 10% water solution of DMSO was used to dissolve the extract. Then, 15 μL of extracts at concentrations of 10.0, 1.0, and 0.1 mg/mL in the well were mixed with an acetate buffer (15 μL, pH = 5.35), an incubation buffer (25 μL, pH = 5.35, 0.01% BSA, 0.45% NaCl), and an enzyme solution (25 μL, 30 U/mL in the incubation buffer). This mixture was incubated at 37 °C for 10 min. Following this, a hyaluronic acid solution (25 μL, 0.3 mg/mL in an acetate buffer with a pH of 5.35) was added. The plates were then incubated for an additional 45 min at 37 °C. After incubation, non-hydrolyzed hyaluronic acid was precipitated by adding 2.5% CTAB (200 μL). The plates were then maintained at 25 °C for 10 min. The intensity of the complex formation was measured at a wavelength of 600 nm. The presence of inhibition was determined by measuring the absorbance of the solution without the inhibitor (AC) and the enzyme (AT). All samples were tested in triplicate. The inhibition of hyaluronidase was calculated using a specific equation, with aescin used as a standard. INHHYAL=AS−AC/AT−AC∗100%
AS—absorbance of the HA + sample + enzyme;
AC—absorbance of the HA + enzyme;
AT—absorbance of the HA + sample.

The nature of data set [3]: ABTS free radical scavenging activity. The note with it: 30 min incubation. How it is done: The ABTS free radical scavenging test was conducted following the method outlined by Wu et al. A working solution of ABTS+ was prepared by combining 10 mL of ABTS (7 mM in H2O) with 10 mL of potassium persulfate (2.45 mM in H2O). This mixture was then left to incubate in the dark for 12 h. The ABTS solution was subsequently diluted with water until it reached an absorbance of 0.700 ± 0.03 at 405 nm. Then, volumes of 10 μL of extracts at concentrations of 1 mg/mL, 0.1 mg/mL, and 0.01 mg/mL (dissolved in MeOH) were combined with 190 μL of the ABTS+ solution and incubated for 30 min. The absorbance at 405 nm was measured after the incubation period. Butylated hydroxyanisole (BHA) was used as a control. The antioxidant activity was then calculated using a specific equation. INHABTS=AC−AS/AC∗100%
AS—the absorbance for sample + ABTS;
AC—the absorbance without sample + ABTS.

Data set [4] in a line: DPPH free radical scavenging activity. The note with it: 60 min incubation. How it is done:
The DPPH free radical scavenging test was conducted according to the procedure established by Naseer et al.. A working solution of DPPH• was prepared by dissolving 24 mg of DPPH in 100 mL of […]. This solution was further diluted with methanol until it reached an absorbance of 0.900 ± 0.03 at 515 nm. Subsequently, volumes of 10 μL of extracts at concentrations of 1 mg/mL, 0.1 mg/mL, and 0.01 mg/mL (dissolved in MeOH) were combined with 190 μL of the DPPH• solution and allowed to incubate for 60 min. The absorbance at 515 nm was measured post incubation. Butylated hydroxyanisole (BHA) was used as a control. The antioxidant activity was then calculated using a specified equation. INHDPPH=AC−AS/AC∗100%
AS—the absorbance for sample + DPPH;
AC—the absorbance without sample + DPPH.

Data set [5] has as its system UACC-647 melanoma cells. Nature of the data set: MTT viability assay, UACC-647. The data set is classed as cell-based, human. How it is done: (§1) The following human melanoma cell lines were used in this study: A375 (ATCC:CRL-1619), UACC-647 (CVCL_4049), and SK-MEL-30 (DSMZ:ACC 151). A375 cells were maintained in Dulbecco’s Modified Eagle’s Medium (DMEM). UACC-647 and SK-MEL-30 were cultured in RPMI-1640. All basal media were supplemented with fetal bovine serum (FBS) at a final concentration of 10%. The control used in the study was BJ foreskin fibroblasts (ATCC:CRL-2522). To facilitate the growth of BJ cells, Eagle’s Minimum Essential Medium (EMEM) with 10% FBS was utilized. Tissue culture-treated Petri dishes were used to support all cell lines. A temperature of 37 °C and 5% CO2 were maintained routinely. The cells were expanded for a few passages, then seeded onto 96-well plates, where they were left to attach overnight. The following day, the cells were exposed to E. divaricatus fractionated extracts at descending concentrations, starting from 200 µg/mL, or to a vehicle (DMSO, 0.1%). Alternatively, the cells were treated with doxorubicin (DOX) to independently determine the inhibitory concentrations causing the 10, 50, and 90% levels of maximal inhibition (IC10, IC50, and IC90, respectively) of cellular viability for each melanoma cell line. Then, the melanoma cells were treated with the DOX at IC10, IC50, or IC90, followed by the addition of the fractions of the extracts from E. divaricatus at a dose of 200 µg/mL. Upon 24 h of incubation, the viability of the cells was assessed by MTT assay.
(§2) Dose–response curves were obtained using GraphPad Prism 8.4.3 software running on a personal computer. Experimental datapoints were fitted to the sigmoidal equation, and the IC50 value was calculated. IC10 and IC90 values were computed using a web tool available at https://www.graphpad.com/ accessed on 20 May 2023.

Data set [6] has as its system SK-MEL-30 melanoma cells. Nature of the data set: MTT viability assay, SK-MEL-30. The data set is classed as cell-based, human. How it is done: as §1, §2
Data set [7] concerns A375 melanoma cells. Nature of the data set: MTT viability assay, A375. The data set is classed as cell-based, human. How it is done:
as §1, §2

The mark [8] stands for this setting: Homo sapiens, A-375, A375, 24 h.

hyaluronidase from bovine testes (bHYAL), sequence (Q2YDK3 entry or part of it): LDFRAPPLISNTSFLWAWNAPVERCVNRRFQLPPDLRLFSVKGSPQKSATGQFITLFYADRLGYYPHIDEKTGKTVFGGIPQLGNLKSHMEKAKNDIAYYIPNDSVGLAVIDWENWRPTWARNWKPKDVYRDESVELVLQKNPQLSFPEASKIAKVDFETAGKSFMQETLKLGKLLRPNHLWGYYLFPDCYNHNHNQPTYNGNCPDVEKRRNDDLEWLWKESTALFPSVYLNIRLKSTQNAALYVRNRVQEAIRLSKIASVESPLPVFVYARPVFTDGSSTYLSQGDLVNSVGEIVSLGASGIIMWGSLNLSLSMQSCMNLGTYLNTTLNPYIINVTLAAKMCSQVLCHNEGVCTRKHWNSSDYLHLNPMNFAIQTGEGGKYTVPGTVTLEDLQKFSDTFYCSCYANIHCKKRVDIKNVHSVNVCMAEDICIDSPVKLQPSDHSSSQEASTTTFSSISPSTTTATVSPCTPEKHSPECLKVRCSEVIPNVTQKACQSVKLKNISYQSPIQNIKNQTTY

As to `COc1cc(C2OCC3C(c4cc(OC)c(O[C@@H]5O[C@H](CO)[C@@H](O)[C@H](O)[C@H]5O)c(OC)c4)OCC23)cc(OC)c1O[C@@H]1O[C@H](CO)[C@@H](O)[C@H](O)[C@H]1O` (single isomer, unassigned; (-)) [Eleutheroside E, (−)-siringaresinol 4,4″-O-β-D-diglucoside], the “IC50 mTYR” value in data set [1] is “no activity”. Further, the “IC50 bHYAL” value in data set [2] is “no activity”.
For `O=C1O[C@H]([C@@H](O)CO)C(O)=C1O` [AA, ascorbic acid], the “IC50 ABTS” value in data set [3] was 2.27 ± 0.07 ^a µg/mL. The “IC50 DPPH” value in data set [4] is reported as 24.93 ± 0.28 ^ab µg/mL.
For `COc1ccc(O)c(C(C)(C)C)c1` [BHA, Butylated hydroxyanisole], in that order: 2.35 ± 0.11 ^a µg/mL and 62.52 ± 4.13 ^ab µg/mL.
On to `O=C(O)/C=C/c1ccc(O)c(O)c1` [Caffeic acid], for which the “IC50 mTYR” value in data set [1] is given as 56.22 ± 0.67 ^a µg/mL.
Same read-out and setting: with `O=C(/C=C/c1ccc(O)c(O)c1)O[C@@H]1C[C@](O)(C(=O)O)C[C@@H](O)[C@H]1O` [Chlorogenic acid] the figure was 107.52 ± 3.46 ^ab µg/mL.
For `COc1cccc2c1C(=O)c1c(O)c3c(c(O)c1C2=O)C[C@@](O)(C(=O)CO)C[C@@H]3O[C@H]1C[C@H](N)[C@H](O)[C@H](C)O1` [DOX, doxorubicin], the IC50 in data set [5] (Homo sapiens, UACC-647, 24 h) was 1160 nM; in data set [6] (Homo sapiens, SK-MEL-30, 24 h, read-out: IC50 (50% of maximal inhibition of viability)), 1520 nM; in data set [7] (setting [8]), 330 nM. Also, the IC90 in data set [5] (Homo sapiens, UACC-647, 24 h) turned out to be 3.76 µM; in data set [6] (Homo sapiens, SK-MEL-30, 24 h, read-out: IC90 (90% of maximal inhibition of viability)) it was 9.63 µM; in data set [7] (setting [8]), 1190 nM. In addition, the “maximal suppression of viability” value in data set [5] (UACC-647) is 39.15%. The IC10 in data set [5] (UACC-647, 24 h) worked out at 0.36 µM; in data set [7] (A375, 24 h), 0.09 µM. Also, the “maximal drop of viability” value in data set [6] (SK-MEL-30) is 81.87%. Also, the “IC10 (10% of maximal inhibition of viability)” value in data set [6] (SK-MEL-30, 24 h) came to 0.24 µM. In data set [7] (A375), the “maximal level of inhibition of viability” value amounted to 96.38%. Besides, the inhibition of viability in data set [7] (A375, DOX alone at IC90) is on record as 96%.
`COc1cc(/C=C/CO)cc(OC)c1O[C@@H]1O[C@H](CO)[C@@H](O)[C@H](O)[C@H]1O` [Eleutheroside B, syringin 4-β-D-glucoside]: the “IC50 mTYR” value in data set [1] is “no activity”. For the same molecule, in data set [2], the “IC50 bHYAL” value is given as “no activity”.
On to `O=C(O)c1ccc(O)c(O)c1` [Protocatechuic acid], for which the “IC50 mTYR” value in data set [1] was 134.57 ± 3.46 ^b µg/mL.
As for `Cc1c(C)c2c(c(C)c1O)CCC(C)(C(=O)O)O2` (stereo not shown) [TROLOX, 6-hydroxy-2,5,7,8-tetramethylchroman-2-carboxylic acid], in data set [3], the “IC50 ABTS” value is 2.85 ± 0.18 ^ab µg/mL. Further, the “IC50 DPPH” value in data set [4] is listed as 13.68 ± 3.53 ^a µg/mL.
With Eleutheroside E1, the “IC50 mTYR” value in data set [1] is recorded as “no activity”. The “IC50 bHYAL” value in data set [2] is reported as “no activity”.
